According to US12492403B2, “Aptamers and the use thereof in the treatment of cancer” (FUNDACIÓN PARA LA INVESTIGACIÓN BIOMÉDICA DEL HOSPITAL …, priority 2018, dated 2025):

Experiments:
MCF7 cells [1] = test: MTT activity assay, aptamers transfected with Lipofectamine 2000; assay type: cell-based, human; settings: MCF7, aptamer 250 nM, 48 hours after transfection
Experimental: (§1) FIG. 3. Effect of the aptamers on MTT activity of MCF7 and MDA-MB-231 cells. The cells were seeded in 96-well plates at a density of 10^4 cells/well. After 16-24 hours, they were transfected with aptamers apMNKQ1, apMNKQ2, apMNKQ3, and apMNKQ4 at 250 nM for 48 hours after which MTT activity assays were performed. The bars represent the mean±SEM of 3-6 independent experiments (*p<0.05, **p<0.01, and ***p<0.001 with respect to the control aptamer AT).
(§2) FIGS. 8A-8C. Effect of aptamer apMNKQ2 on MTT activity of breast cell lines. MCF7, MDA-MB-231, and MDA-MB-468 cells were seeded in 96-well plates at a density of 10^4 cells/well. […] The graphs represent the means±SEM of 3 independent experiments (*p<0.05, **p<0.01, and ***p<0.001 with respect to the control AT).
(§3) The Lipofectamine™ 2000 system (Invitrogen, USA) was used to treat cells with the different aptamers. To prepare the DNA-lipofectamine complex, lipofectamine and DNA were separately diluted in opti-MEM (Gibco, USA) and left to incubate at room temperature for 5 minutes. They were then mixed to form lipofectamine-DNA complexes and incubated for 20 minutes at room temperature. Finally, the mixture was added to the cells that had been washed twice with antibiotic-free medium to prevent the interference thereof with lipofectamine. The cells were incubated at 37° C. for 5 hours, after which the reagent was removed and a complete medium was added.
(§4) MTT activity. The cells were seeded in 96-well plates and after having been transfected, the culture medium was removed and 100 μL/well of MTT at 1 mg/ml in culture medium were added. The plates were incubated for 90 minutes in an incubator with a moisture-saturated environment at 37° C. and 5% CO2/[…] and 100 μL/well of a lysis solution (10% SDS and 10 mM HCl) were added for dissolving the crystals. After 48 hours, the reduction of MTT was determined by means of spectrophotometry in Infinite F200 (TECAN, Switzerland) at 540 nm.
(§5) The results were expressed as the percentage of viability with respect to the control or in absorbance units.

MDA-MB-231 cells [2] = test: as above; assay type: cell-based, human; settings: MDA-MB-231, aptamer 250 nM, 48 hours after transfection
Experimental: as §1, §2, §3, §4, §5

MNK1 = test: Recognition of the two isoforms of MNK1 by precursor and truncated aptamers; assay type: binding
AKT = test: Western blot of phosphorylation, combined therapy study; assay type: cell-based, human; settings: MDA-MB-231 and MCF7 cells, 24 hours
Experimental: (§6) FIG. 22A & 22B. Combined therapy studies of apMNKQ2 and everolimus. […] The different antibodies used are indicated.
(§7) Seventy-two hours after treatment, MTT activity was measured.

eIF4E = test: as above; assay type: cell-based, human; settings: MDA-MB-231 and MCF7 cells, 24 hours
Experimental: as §6, §7

ribosomal protein S6 = test: as above; assay type: cell-based, human; settings: MDA-MB-231 and MCF7 cells, 24 hours
Experimental: as §6, §7

MCF7 cells [3] = settings: cells with IC50 greater than 1 nM are considered resistant; cited from earlier work
MDA-MB-231 cells [4] = settings: cells with IC50 greater than 1 nM are considered resistant; cited from earlier work
DNase I = settings: 1 unit of DNase I, 5 minutes at 37° C., same assay conditions (Garcia-Recio, Pinto-Diez et al. 2016); cited from earlier work

5′-GGGTGGTATGGCGCGTTGGCCC-3′ (DNA, backbone and methylation of C not given here; further chemistry not fully specified) [apMNKQ4, 22-nucleotide aptamer designed from apMNK2FT]
effect on MTT activity (MCF7 cells [1]): partial effect | inhibition of MTT activity (MDA-MB-231 cells [2]): about 15%

5′-TTTTTGGGGTGGGCGGGCGGGGGTGGGGGTGGTATGGCGCGTTGGCCC-3′ (DNA, backbone and methylation of C not given here; further chemistry not fully specified) [apMNK2FT, truncated 48-nucleotide aptamer derived from precursor aptamer apMNK2F]
recognition of the two isoforms of MNK1 (MNK1a, MNK1b) (MNK1): recognized both isoforms in a similar manner

5′GGGTGGGGGTGGT-3′ (DNA, backbone not given here; further chemistry not fully specified) [apMNKQ3, 13-nucleotide aptamer designed from apMNK2FT]
effect on MTT activity (MCF7 cells [1]): partial effect | inhibition of MTT activity (MDA-MB-231 cells [2]): about 15%

5′TGGGGTGGGCGGGCGGGG-3′ (DNA, backbone and methylation of C not given here; further chemistry not fully specified) [apMNKQ1, 18-nucleotide aptamer designed from apMNK2FT based on G-quadruplex formation]
effect on MTT activity (MCF7 cells [1]): partial effect | inhibition of MTT activity (MDA-MB-231 cells [2]): 30%

CO[C@H]1C[C@@H]2CC[C@@H](C)[C@@](O)(O2)C(=O)C(=O)N2CCCC[C@H]2C(=O)O[C@H]([C@H](C)C[C@@H]2CC[C@@H](OCCO)[C@H](OC)C2)CC(=O)[C@H](C)/C=C(\C)[C@@H](O)[C@@H](OC)C(=O)[C@H](C)C[C@H](C)/C=C/C=C/C=C/1C [everolimus, 40-O-(2-hydroxyethyl) derivative of sirolimus, reference compound]
phosphorylation of AKT (AKT): increased | phosphorylation of eIF4E (eIF4E): increased | phosphorylation of ribosomal protein S6 (dependent on mTOR activity) (ribosomal protein S6): inhibiting mTOR | sensitivity of the cell line to the drug (MCF7 cells [3]): resistant | sensitivity of the cell line to the drug (MDA-MB-231 cells [4]): resistant

B1: apMNK2F: precursor (parental) aptamer against MNK1, described in Garcia-Recio, Pinto-Diez et al. 2016 (nucleic acid)
DNA: GCGGATGAAGACTGGTGTGGGGTGGGCGGGCGGGGGTGGGGGTGGTATGGCGCGTTGGCCCTAAATACGAGCAAC
modifications: DNA, backbone and methylation of C not given here; further chemistry not fully specified
recognition of the two isoforms of MNK1 (MNK1a, MNK1b) (MNK1): higher affinity for MNK1b | stability (DNase I): 0%
